Laboratory results as given in PubChem BioAssay AID392 (SGCOxCompounds, 2006).

Biological target: Peroxisomal trans-2-enoyl-CoA reductase (Homo sapiens) (UniProt Q9BY49)
Test: compound-induced PECR thermal stabilization – biophysical, human, DSF, SYPRO orange, NADP+ (AID 392)
Details: recombinant PECR, protein 2 µM, buffer 10 mM HEPES, pH 7.5, NaCl 150 mM, stronger effect = higher value

Peroxisomal trans-2-enoyl-CoA reductase (Homo sapiens), sequence (Q9BY49 whole entry, looked up): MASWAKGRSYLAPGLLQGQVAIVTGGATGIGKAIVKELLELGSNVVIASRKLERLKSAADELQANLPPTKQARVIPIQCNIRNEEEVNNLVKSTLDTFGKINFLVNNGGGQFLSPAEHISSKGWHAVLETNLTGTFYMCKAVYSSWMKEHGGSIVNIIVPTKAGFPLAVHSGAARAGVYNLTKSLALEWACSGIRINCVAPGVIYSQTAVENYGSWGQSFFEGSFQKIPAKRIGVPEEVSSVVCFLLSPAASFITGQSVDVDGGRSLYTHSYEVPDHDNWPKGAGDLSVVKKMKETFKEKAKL

SMILES	Tm shift (at 10 µM, NADP 200 µM) [Celsius]	Tm shift (at 100 µM, NADP+ 200 µM) [Celsius]	also measured
NC(=O)c1ccc[n+](C2OC(COP(=O)(O)OP(=O)(O)OCC3OC(n4cnc5c(N)ncnc54)C(O)C3O)C(O)C2O)c1 (stereo not drawn)	2.2	–	–
O=C1C2(Cl)C3(Cl)C4(Cl)C(Cl)(Cl)C5(Cl)C3(Cl)C1(Cl)C5(Cl)C24Cl (stereo not drawn)	–	3.1	–
C=CC1=C(C)/C(=C/c2[nH]c(Cc3[nH]c(/C=C4\NC(=O)C(C)=C4C=C)c(C)c3CCC(=O)O)c(CCC(=O)O)c2C)NC1=O	–	10	–
O=C1Nc2ccccc2C1=O	–	6.4	–
C[C@@]12CCC3=C(CCc4cc(O)ccc43)[C@]13C[C@@H]3CC2=C(F)F	–	23.8	–
O=C(O[C@@H]1Cc2c(O)cc(O)cc2O[C@H]1c1ccc(O)c(O)c1)c1cc(O)c(O)c(O)c1	–	–	Tm shift (at 10 µM, NADP+ 200 µM): 12.6 Celsius

More lines, main results first:

Tm shift (at 10 µM, NADP 200 µM) [Celsius]	Tm shift (at 100 µM, NADP+ 200 µM) [Celsius]	SMILES	also measured
2.2	–	NC(=O)c1ccc[n+](C2OC(COP(=O)(O)OP(=O)(O)OCC3OC(n4cnc5c(N)ncnc54)C(OP(=O)(O)O)C3O)C(O)C2O)c1 (stereo not drawn)	–
–	3.7	C[C@@]12CCC3=C(CCc4cc(O)ccc43)[C@H]1CCC2=C(F)F	–
2.3	–	O=C(C1CCC(CNS(=O)(=O)c2ccc(Br)s2)CC1)N1CCN(C(c2ccccc2)c2ccc(Cl)cc2)CC1 (stereo not drawn)	–
–	4.1	CCCCCCCCCC(=O)SCCNC(=O)CCNC(=O)C(O)C(C)(C)COP(=O)(O)OP(=O)(O)OCC1OC(n2cnc3c(N)ncnc32)C(O)C1OP(=O)(O)O (stereo not drawn)	–
2.2	–	O=c1oc2cc(O)ccc2c2oc3cc(O)ccc3c12	–
2.4	–	CCc1nnc(NS(=O)(=O)c2ccc(NC(=O)/C=C/c3ccc(F)cc3)cc2)s1	–
2.1	–	O=C(C1CCN(S(=O)(=O)c2ccc(Br)s2)CC1)N1CCN(C(c2ccccc2)c2ccc(Cl)cc2)CC1 (stereo not drawn)	–
